In US20160038526A1, “TREATMENT OF PROSTATE CANCER” (THOMAS JEFFERSON UNIVERSITY, priority 2012, published 2016):

Assays:
Stat5a/b = test: Electrophoresis mobility shift assay (EMSA) of Stat5a/b binding to DNA, nuclear extracts of transfected COS-7 cells; assay type: cell-based; conditions: 2 hours pretreatment, 10 nmol/L Prl 30 minutes
Description: COS-7 cells were transfected with plasmids expressing Stat5a (pStat5a) and PrlR (pPrlR) using FuGENE6. After 24 hours, the cells were starved in serum-free medium for 16 hours and then pretreated with N6BAP or the control compound C5 for 2 hours and the stimulated with 10 nmol/L Prl for 30 minutes. Nuclear extracts were prepared and a gel EMSA was performed as previously described (Ahonen et al., Endocrinology 2002, 143:228-238; Nevalainen et al., Mol Endocrinol 2002, 16:1108-1124). Double stranded Stat5a/b-binding oligonucleotide probe (upper strand sequence: 5′-[…]-3′) (Boucheron et al., J Biol Chem (1998), 273:33936-33941) were end-labeled with 50 μCi of γ-^32P-ATP (5000 ci/mMol) and incubated (1 ng per reaction) with 10 μl of nuclear extracts in the final volume of 20 μl of the binding mixture (50 mM TrisHCl, pH 7.4, 25 mM MgCl2, 500 mM KCl, 5 mM DTT, 50% glycerol) and 1 μl of 1 mg/ml Poly d[(I:C)]. For a supershift control, the samples were preincubated with anti-Stat5a or anti-Stat5b antibody (Millipore) or NRS as indicated. Polyacrylamide gels (5%) containing 5% glycerol and 0.25×Tris-borate/EDTA were pre-run in 0.25×Tris-borate/EDTA buffer at 4-10° C. for 2-4 h at 300V. The gels were run at room temperature for 2.33 hours at 200 V, dried and exposed to x-ray films (X-Omat, Eastman Kodak Co.). […]

Stat3 [1] = target: Stat3 (Homo sapiens, UniProt P40763); test: IL-6-induced Stat3 transcriptional activity, luciferase reporter in LNCaP cells; assay type: cell-based; conditions: 6.0 μM for 2 h, 50 ng/ml IL-6 for 16 h
Description: LNCaP prostate cancer cells were transiently co-transfected with pStat3, pIL-6-receptor (pIL-6R), pStat3-Luc and pRL-TK (Renilla luciferase). The cells were serum-starved for 20 h, pre-treated with N6BAP or the control compound C5 (Ctrl) at 6.0 μM for 2 h followed by stimulation with 50 ng/ml of IL-6 for 16 h. The relative luciferase activities were determined. S.E. values are indicated by bars.

LNCaP cells = test: Cell viability, MTS metabolic activity assay, LNCaP; assay type: cell-based, human; conditions: 72 hours
Description: (§1) CWR22Rv1 prostate cancer cells were treated with N6BAP or the control compound C5 (Ctrl) at 25 μM concentration or vehicle for 24 h. Following trypan blue exclusion, the attached viable vs. de-attached dead cells were counted. […] The bars indicate mean±SD of triplicate wells. In another assay, CWR22Rv1, LNCaP and DU145 cells were treated with N6BAP, the control compound C5 (Ctrl) or vehicle at indicated concentrations. The fraction of alive cells was determined by MTS ([…]) metabolic activity assay (CellTiter 96® AQueous Assay kit). The results are shown in FIGS. 9C, 9D and 9E, respectively.

HepG2 (hepatocellular) = test: Cell viability assay, HepG2; assay type: cell-based
COS-7 (monkey kidney) = test: Cell viability assay, COS-7; assay type: cell-based
Description: as §1
The procedure of Example 9 was followed, substituting cells of the following solid tumor cell lines for the cells treated in Example 9: A549 human lung cancer cells, CAPAN human pancreatic cancer cells, T47D human breast cancer cells, […], A2058 human melanoma and COS-7 monkey fibroblast cell lines.

CWR22Rv1 xenograft tumor = test: CWR22Rv1 human prostate tumor xenograft in nude mice: tumor growth, viable cells, TUNEL; assay type: in vivo; conditions: nude mice, 25, 50 or 100 mg/kg intraperitoneal daily for 10 days
Description: 1.5×10^7 CWR22Rv1 cells in 0.1 ml RPMI 1640 medium were mixed with 0.1 ml of Matrigel (BD Bioscience, Palo Alto, Calif.), and were inoculated subcutaneously (s.c.) into one flank per mouse. Established tumors were randomly distributed into five groups (ten mice for each group) with similar average size. N6BAP was dissolved in 0.3% hydroxycellulose (HPC). Mice were treated daily for 10 days by intraperitoneal injection with 0.2 ml of N6BAP at 25 mg/kg, 50 mg/kg or 100 mg/kg body weight, or with 0.2 ml 0.3% HPC solution, or no treatment for control. Tumor sizes were measured three times per week. Tumor volumes were calculated using the following formula: 3.14×length×width×depth/6. Tumor growth rates were calculated, and percent changes in tumor volume of each group were presented. […] Individual tumors are represented as columns.
Tumor sections were hematoxylin-eosin stained to assess the loss of viable tumor cells. The results are shown in FIG. 12A, showing the loss of live epithelial cells with the […] N6BAP-treated CWR22Rv1 xenograft tumors vs. controls.
In situ end labeling of fragmented DNA was carried out according to the terminal deoxyribonucleotidyl transferse (TdT)-mediated biotin-16-dUTP nick-end labeling (TUNEL) assay to determine that cells within the CWR22Rv1 tumors were undergoing apoptosis. The assay was performed according to the In situ Cell Death Detection Kit from Roche Applied Science. Briefly, rehydrated deparaffinated tissue sections from the xenograft tumors were treated by Proteinase K followed by 3% H2O2 at room temperature. […] Nucleotides incorporated into fragmented DNA were detected after incubation with anti-fluorescein antibody conjugated with peroxidase followed by visualization with 3,3-diaminobenzidine as a chromogen and methyl green as a counterstain. […] Cell viability indexes were determined by counting alive cells per total number of cells per view established in the no treatment group. TUNEL indexes were determined by counting epithelial cells with TUNEL-positive cells per total number of epithelial cells per view. […]

Stat3 [2] = test: Nuclear Stat3 immunostaining in CWR22Rv1 xenograft tumors; assay type: in vivo, nude mice; conditions: CWR22Rv1 xenograft tumors of Example 10
Description: Nuclear active Stat5a/b or nuclear active Stat3 were analyzed by immunostaining with an anti-Stat5a/b or anti-Stat3 antibody, respectively, and biotin-streptavidin amplified peroxidase antiperoxidase immunodetection of paraffin-embedded sections of the prostate xenograft tumors of Example 10. Anti-Stat5a/b (mAb) (55 ng/ml) (Santa Cruz Biotechnology) was used as the primary antibody and antigen-antibody complexes were detected by appropriate biotinylated goat secondary antibodies (Biogenex Laboratories) followed by streptavidin-horseradish-peroxidase complex, and 3,3′-diaminobenzidine as chromogen and Mayer hematoxylin as counterstain. Three microscopic views of each tumor (ten tumors per each treatment group) were photographed at 20× magnification. Nuclear Stat5 and Stat3 indexes were determined by counting epithelial cells with nuclear Stat5a/b immunostaining-positive cells per total number of epithelial cells per view. The counts were averaged within the tumors in a given treatment group.

Chain of Stat3 (Homo sapiens, UniProt P40763) (P40763 whole entry, species assumed): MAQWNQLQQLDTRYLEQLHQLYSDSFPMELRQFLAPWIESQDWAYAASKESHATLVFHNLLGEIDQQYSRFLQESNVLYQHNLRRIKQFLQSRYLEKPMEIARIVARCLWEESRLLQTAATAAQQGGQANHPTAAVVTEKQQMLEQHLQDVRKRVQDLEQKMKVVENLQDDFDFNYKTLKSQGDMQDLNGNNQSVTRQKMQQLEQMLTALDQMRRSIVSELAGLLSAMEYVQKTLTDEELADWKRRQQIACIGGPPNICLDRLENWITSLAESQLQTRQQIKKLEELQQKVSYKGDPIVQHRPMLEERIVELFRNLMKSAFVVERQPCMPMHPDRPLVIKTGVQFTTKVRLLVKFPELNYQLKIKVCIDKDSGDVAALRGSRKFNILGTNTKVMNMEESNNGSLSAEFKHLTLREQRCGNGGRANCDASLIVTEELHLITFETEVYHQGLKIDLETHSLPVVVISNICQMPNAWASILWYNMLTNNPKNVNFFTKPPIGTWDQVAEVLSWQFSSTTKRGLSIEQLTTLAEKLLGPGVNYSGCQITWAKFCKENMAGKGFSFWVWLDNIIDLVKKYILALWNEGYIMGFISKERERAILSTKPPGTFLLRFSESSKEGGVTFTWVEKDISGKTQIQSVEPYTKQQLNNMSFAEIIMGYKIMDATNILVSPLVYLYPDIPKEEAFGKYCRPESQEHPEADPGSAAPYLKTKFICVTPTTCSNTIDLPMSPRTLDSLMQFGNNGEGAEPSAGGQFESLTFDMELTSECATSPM

In the case of `O=P(O)(O)OC[C@H]1O[C@@H](n2cnc3c(NCc4ccccc4)ncnc32)[C@H](O)[C@@H]1O` [N6BAP, N^6-benzyladenosine-5′-monophosphate], the “binding of Stat5a/b to DNA (EMSA)” value (Stat5a/b) is reported as “inhibited binding of Stat5a/b to DNA”, the “transcriptional activity of Stat3” value (Stat3 [1]) is reported as “does not inhibit the transcriptional activity of Stat3” and the “number of viable cells” value (LNCaP cells) is reported as “decreases the number of viable cells”. The cell viability (HepG2 (hepatocellular)) was “did not affect the viability”, the cell viability (COS-7 (monkey kidney)) was “did not affect the viability” and the “apoptotic epithelial cells in tumor xenografts (TUNEL)” value (CWR22Rv1 xenograft tumor) was “increased apoptotic epithelial cells”. The “live epithelial cells in tumor xenografts (hematoxylin-eosin staining)” value (CWR22Rv1 xenograft tumor) was “decreased the number of live epithelial cells”, the “xenograft tumor growth (tumor volume)” value (CWR22Rv1 xenograft tumor) was “inhibited the growth of the xenograft tumor in a dose-dependent manner” and the “nuclear Stat3 in xenograft tumors” value (Stat3 [2]) was “without affecting nuclear Stat3”.
